Assay results taken from the METLIN SMRT retention time set (Domingo-Almenara et al. 2019).

Experiment: gradient 5% acetonitrile 3 min, to 50% in 2 min, to 85% in 15 min, held 3 min, 100 µL/min
Settings: column: Zorbax Extend-C18 2.1 x 50 mm; eluents: water / acetonitrile, 0.1% formic acid
Procedure, shortened: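 Pure standards were run in mixtures of ~100 molecules by HPLC coupled to a quadrupole time-of-flight mass spectrometer. The column was a Zorbax Extend-C18 (2.1 × 50 mm, 1.8 μm) at 100 μL/min, with water and acetonitrile each containing 0.1% formic acid, in positive and negative ionization mode. Dead and dwell volumes were 40 μL and 900 μL. Retention time was taken from computationally picked adduct peaks, each manually inspected, with data collected over 3 months.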

Row | Compound | RP-LC retention time [s]
1 | Cc1ccc(-c2nc(-c3ccc4c(c3)ncn4CCN3CCOCC3)no2)cc1F | 689
2 | COc1ccc(CC(=O)N2C[C@@H]3C[C@H]2C[C@@H]3NC(=O)c2ccccc2)c(Cl)c1 | 738
3 | O=C(Cn1ccnc1)N1CCCCC1c1nncn1Cc1ccccc1 (stereo not drawn) | 579
4 | CCCN1C(=O)c2cc(S(=O)(=O)Nc3ccc(F)cc3F)ccc2Oc2cccnc21 | 1050
5 | CCCn1cc(-c2nc(-c3ccccn3)no2)c(=O)c2cc(F)ccc21 | 761
6 | CC(C)c1nc2c(NC(=O)c3ccc(Br)o3)cccn2n1 | 908
7 | COc1ccc(NC(=O)c2cnc3c(c2)c(=O)n(C)c(=O)n3-c2ccc(C)cc2)c(OC)c1 | 913
8 | COc1ccc(OC)c(S(=O)(=O)N2CCC3(C2)C(=O)N(C)c2ccccc23)c1 (stereo not drawn) | 853
9 | O=C(NCc1cccnc1)c1ccc(CN2CCN(Cc3ccc(F)cc3)C(=O)C2=O)cc1 | 597
10 | CNC(=O)[C@@H]1CN(C(=O)c2cnccn2)C[C@H]1c1n[nH]c(C)n1 | 539
11 | COc1ccc(-c2nc(Cn3ccnc3)no2)cc1 | 599
12 | O=C(Cn1nc2ccc(SCc3ccc(Cl)cc3)nn2c1=O)NC1CCCCC1 | 870
13 | COc1ccc(CN2C=C(C(=O)OCc3nc(-c4ccccc4)no3)C(C)=NS2(=O)=O)cc1 | 1100
14 | CC(C)Cn1cc(CCNS(=O)(=O)Cc2ccc(Cl)cc2)c2cccnc21 | 986
15 | CC(C)C(=O)N1CCCC(c2nc(CCNC(=O)C3CCC3)cs2)C1 (stereo not drawn) | 694
16 | O=C(Nc1ccc2c(c1)OCCO2)N1CCC(Cc2noc(C3CCOCC3)n2)C1 (stereo not drawn) | 698
17 | CC(C)CCNC(=O)C1(C)CN(S(=O)(=O)c2ccccc2)CC(=O)N1c1ccc(Cl)cc1 (stereo not drawn) | 992
18 | Cc1ccc(C(=O)N2CC3CN(S(=O)(=O)c4cccc(F)c4)CC(C2)O3)s1 | 821
19 | COCCN1C(=O)[C@H]2CN(Cc3cccc(Cl)c3)C[C@H]2C1=O | 633
20 | CCOC(=O)Cc1csc(NC(=O)C2CC(=O)N(c3n[nH]c4cccc(F)c34)C2)n1 (stereo not drawn) | 699

Row | Compound | RP-LC retention time [s]
21 | CC(C)c1nncn1C1CCN(C(=O)c2ccc3c(c2)OCO3)C1 (stereo not drawn) | 612
22 | CC(=O)N1CCCC1c1nc(C2CN(S(=O)(=O)c3cccs3)C2)no1 (stereo not drawn) | 703
23 | O=C(c1ccco1)N1CCC(c2nc(C3CC3)n[nH]2)CC1 | 521
24 | Cc1noc([C@@H]2CN(C(=O)c3cn[nH]c3)C[C@H]2C(N)=O)n1 | 536
25 | CC1=C(C(=O)NCCCN2CCN(Cc3ccccc3)CC2)C2(CCCCC2)OC1=O | 627
26 | CC1Oc2ccc(S(=O)(=O)N3CCC(C(=O)NC4CCCC4)CC3)cc2NC1=O (stereo not drawn) | 740
27 | Cc1nccn1Cc1nc(-c2cccc(F)c2)no1 | 607
28 | CC1=C(c2ccc(F)cc2)S(=O)(=O)N=C1N1CCCN(C(=O)NC(C)C)CC1 | 746
29 | Cn1cnc2ccc(-c3noc(Cc4ccccc4Cl)n3)cc21 | 738
30 | O=C(Nc1ccc(Cl)cc1)c1cn(CC(O)c2ccc3c(c2)OCO3)nn1 (stereo not drawn) | 841
31 | O=C(c1cccs1)N1CCN(Cc2ccc(=O)n(CC3CC3)c2)CC1 | 480
32 | CC(NC(=O)c1ccc(-c2ccsc2)nc1)c1ccc(F)cc1 (stereo not drawn) | 908
33 | COCCN1C(=O)[C@H]2CN(Cc3cc(OC)ccc3OC)C[C@H]2C1=O | 595
34 | COCCNC(=O)C(=O)NCC1CCN(C(=O)c2ccccc2F)CC1 | 609
35 | CCN(C(=O)Cc1ccccc1)c1nc(-c2ccccc2)cs1 | 1270
36 | COCCn1c(SCc2nc(-c3ccccc3)no2)nc2cc3c(cc2c1=O)OCO3 | 1040
37 | CCCCCNC(=O)c1cnn2c(-c3ccc4c(c3)OCO4)ccnc12 | 1010
38 | CC(=O)N1CCc2sc(S(=O)(=O)N3CCN(c4cccc(Cl)c4)CC3)cc2C1 | 957
39 | CCOc1ccc(C(=O)N2CCCC2c2nc(-c3ccc(F)cc3F)no2)cc1 (stereo not drawn) | 1010

Results, then the compound that gave them:

Row | RP-LC retention time [s] | Compound
40 | 722 | CCOc1ccc(S(=O)(=O)Nc2cc(-c3cn4cccc(C)c4n3)ccc2C)cc1
41 | 840 | COc1ccc(-c2cc3c4nn(CC(=O)Nc5cccc(C)c5C)c(=O)n4ccn3n2)cc1
42 | 958 | Cc1ccc(NC(=O)Cn2nc3cc(-c4ccccc4)nc(C)n3c2=O)c(F)c1
43 | 685 | CC(C)N1CCN(Cc2ccc(C(=O)NCc3ccccc3)cc2)C(=O)C1=O
44 | 738 | CCOC(=O)COc1cc(-c2ccccc2)nc2ccc(NC(=O)C3CC3)cc12
45 | 599 | CC(C)n1c(-c2cccc(C(=O)NCCN3CCCCC3)c2)nc2cccnc21
46 | 822 | Cc1cc(C2CCCN2C(=O)Nc2ccc(C)c(F)c2)on1 (stereo not drawn)
47 | 1030 | CCOc1ccccc1CNC(=O)C1CCN(c2nc(CC)nc3csc(C)c23)CC1
48 | 846 | O=C(Cn1cc(S(=O)(=O)N2CCCCC2)ccc1=O)N1CCCc2ccccc21
49 | 631 | Cn1c(N2CCC(C(=O)NCCCN3CCC(Cc4ccccc4)CC3)CC2)cc(=O)n(C)c1=O
50 | 613 | Cc1nc(N2CCOCC2)c2c(C(=O)NCC3CCN(Cc4ccccc4Cl)CC3)c(C)oc2n1
51 | 668 | O=C(Nc1ccccc1)[C@@H]1OCCN(C2CC2)[C@H]1c1ccccc1
52 | 612 | COc1ccc(CNC(=O)Cn2c(N3CCCC3)nc(C)cc2=O)cc1
53 | 812 | CCn1nc(C)c2ccnc(N3CCC(C(=O)N4CCN(c5ccccc5Cl)CC4)CC3)c21
54 | 1070 | O=C(Nc1ccc(Br)cc1F)C1CCCN(c2cnc3ccccc3n2)C1 (stereo not drawn)
55 | 1170 | Cc1sc(-c2cc(C(F)(F)F)[nH]n2)cc1S(=O)(=O)N1CCN(c2ccccc2F)CC1
56 | 833 | COc1ccccc1NC(=O)Cn1c(=O)n(-c2ccc(F)cc2)c(=O)c2c1cc(C)n2C
57 | 879 | Cc1c(Cl)cccc1NC(=O)CN1C(=O)CCCc2cc(S(=O)(=O)N3CCCC3)ccc21
58 | 691 | COc1ccc(NC(=O)c2ccc(N3C(=O)CCC3=O)cc2)c2ccccc12
59 | 819 | Cc1cccc(C)c1NC(=O)Cn1c(=O)nc(N2CCC(C)CC2)c2ccccc21
60 | 667 | O=C(NCC1CCN(C(=O)c2ccccc2F)CC1)c1ccccn1
61 | 871 | CC1=C(c2ccc(Cl)cc2)S(=O)(=O)N=C1N1CCCN(C(=O)NC(C)(C)C)CC1
62 | 861 | Cc1ccc(-c2cn3c(CC(=O)Nc4ccc(F)cc4F)csc3n2)cc1C
63 | 583 | CCOC(=O)c1ccc2nc(C)cc(NC(=O)c3ccco3)c2c1
64 | 565 | Cc1cccc(NC(=O)N2CCc3nc[nH]c3C2)c1C

Row | RP-LC retention time [s] | Compound
65 | 776 | Cc1noc(C)c1S(=O)(=O)N1CCc2nn(Cc3ccccc3)c(=O)n2CC1
66 | 742 | Cc1cc(=O)n(CC(=O)Nc2ccc3c(c2)OCO3)c(N2CCc3ccccc3C2)n1
67 | 608 | O=C(Nc1c(F)cccc1F)N1CCc2[nH]cnc2C1c1ccccc1 (stereo not drawn)
68 | 846 | COC(=O)c1cc(S(=O)(=O)N2CCCC2C(=O)NCc2ccccc2C)cn1C (stereo not drawn)
69 | 997 | Cc1nn(CC(=O)NCCCOC(C)C)c(=O)c2c(-n3cccc3)n(-c3ccc(Cl)cc3)nc12
70 | 773 | COc1ccccc1CNC(=O)CN1CCN(Cc2ccccc2)C1=O
71 | 692 | Cc1ccc2c(=O)c(C(=O)N3CCCC3)cn(CC(=O)Nc3ccccc3C)c2n1
72 | 897 | O=C(NC1CCCC1)c1nc(C(=O)N2CCN(c3ccccc3)CC2)cs1
73 | 816 | O=C(Oc1ccccc1)N1CCC(CNC(=O)C2(c3ccccc3)CCOCC2)CC1
74 | 699 | Cc1ccc(Oc2cccc(NC(=O)Cc3noc4ccccc34)c2)nn1
75 | 740 | Cc1noc2nc(CCC(=O)NCc3ccc(Cl)cc3)nc(N3CCOCC3)c12
76 | 972 | CS(=O)(=O)N1CCC(C(=O)Nc2cccc(C(F)(F)F)c2)Oc2ccccc21 (stereo not drawn)
77 | 1150 | CCc1ccccc1NC(=O)c1cc(CC)n2nccc2n1
78 | 701 | Cc1nc(N2CCN(c3ccccn3)CC2)c2c(C)c(C(=O)Nc3ccc(F)cc3F)sc2n1
79 | 654 | Cc1nn(C)c(C)c1CNC(=O)CN1C(=O)C2CCCCN2c2ccc(C(=O)N3CCCC3)cc21 (stereo not drawn)
80 | 1000 | Cc1ccccc1-n1c(=O)c2sccc2n(Cc2nc(-c3ccccc3)no2)c1=O
81 | 926 | Cc1ccc(NC(=O)Cn2cccc2-c2nnc(C3CCC3)o2)cc1
82 | 843 | Cc1cc2cc(CNC(=O)Nc3cccc(Cl)c3)ccc2[nH]1
83 | 785 | Cn1c(=O)c(SCC(=O)NCc2ccccc2F)nc2ccccc21
84 | 1020 | Cc1ccccc1NC(=O)N1CCc2nc(-c3ccc(Cl)cc3)ncc2C1
85 | 1170 | COc1ccc(N2CCN(S(=O)(=O)c3cc(-c4cnn5c(C)cc(C)nc45)ccc3C)CC2)cc1
86 | 841 | Cc1ccc(-n2c(=O)c3c(cc(C)n3C)n(CC(=O)Nc3ccccc3F)c2=O)cc1
87 | 712 | CCC(=O)Nc1c(C(=O)NC)oc2ccccc12
88 | 836 | COc1cc(NC(=O)Cn2nc(N(C)C)c3ccccc3c2=O)cc(OC)c1
